Patent US12325696B2, “Indazole derivative, preparation method therefor, and pharmaceutical application thereof” (JIANGSU HENGRUI MEDICINE CO., LTD., priority 2019, dated 2025)

Legend:
Format in all cases: cell-based
[1] = test system: estrogen receptor reporter gene; experiment: Inhibition of estrogen receptor reporter gene activity (ERE-luc luciferase) in MCF7/ERE-luc cells; settings: Homo sapiens, 0.1 nM β-estradiol, 20 hours, read-out: IC50 of inhibitory activity on the activity of the estrogen receptor reporter gene
Experimental: MCF7 cells MCF7/ERE-luc (ATCC, HTB-22) expressing the luciferase reporter gene ERE-luc (synthesized by GENEWIZ, Inc.) controlled by the estrogen receptor response element were cultured in MEM (GE Healthcare, SH30024.01) medium containing 10% fetal bovine serum and 500 µg/ml G418. On the first day of the experiment, MCF7/ERE-luc cells were seeded in a 96-well plate with incomplete MEM medium containing 10% fetal bovine serum treated with activated charcoal (BioSun, BS-0004-500) at a density of 30,000 cells/well (100 μl of cell suspension per well), and the plate was incubated in a cell incubator at 37° C. and 5% CO2 overnight. On the second day, 10 μl of β-estradiol (SIGMA, E2758-250MG) solution formulated with the above incomplete medium or test compound solution of different concentrations formulated with the above incomplete medium was added to each well, wherein the final concentration of β-estradiol was 0.1 nM, and the final concentrations of the compound were nine concentration points obtained by a 10-fold gradient dilution starting from 10 μM, a blank control containing 0.5% DMSO was set, and the plate was incubated in a cell incubator at 37° C. and 5% CO2 for 20 hours. On the third day, the 96-well plate was taken out, and 100 μl of ONE-Glo™ Luciferase Assay system (Promega, E6110) was added to each well to determine the activity of luciferase. The plate was left to stand at room temperature for 3 minutes until the cells were fully lysed, and the luminescence signal values were measured using a multi-label microplate reader (PerkinElmer, VICTOR 3). The IC50 values of the inhibitory activity of the compounds were calculated using Graphpad Prism software based on the concentrations and luminescence signal values of the compounds.
The inhibitory effect of the compounds of the present disclosure on the activity of the estrogen receptor reporter gene was determined by the above test. A graph of the chemiluminescence signal values versus the logarithmic concentrations of the compound was made using Graghpad Prism.

MCF7 ERαY537S = experiment: Inhibition of proliferation of MCF7 cell expressing ERα Y537S mutant; settings: Homo sapiens, 144 hours; for Emax: read-out: Maximum inhibition
From the text: (§1) The mutants ERα Y537S and ERα D538G of human estrogen receptor α (ERαs) protein were obtained by site-directed mutagenesis using the cDNA of wild-type ESR1 gene (Accession No. NM000125) as a template according to double-primer PCR. The primer sequences used for mutagenesis are as follows (the nucleotides underlined are the sites of mutagenesis):
(§2) The cDNA of mutant ESR1 was cloned into the target lentiviral vector pCDH-CMV-MCS-EF1-Puro (SBI, CD510B-1). The lentiviral plasmid with the mutant ESR1 gene sequence and the lentiviral packaging plasmids pVSV-G and pCMV-dR8.91 (SBI, LV500A-1) were transfected into HEK-293T cells (ATCC, CRL-3216) by Lipofectamine 3000 Transfection Reagent (ThermoFisher Scientific, Cat #L3000075). 48 hours after the transfection, the supernatant of the virus-containing DMEM high-glycemic medium (GE Healthcare, SH30243.01) containing 10% FBS was filtered, and ultracentrifuged to obtain the virus pellet. The virus pellet was resuspended in an appropriate amount of MEM medium (GE Healthcare, SH30024.01) containing 10% FBS, non-essential amino acids (SIGMA, M7145-100ML) and sodium pyruvate (SIGMA, S8636-100ML), and the resulting suspension was added to MCF7 cells (ATCC, HTB-22). Polybrene (SIGMA, H9268-5G) at a final concentration of 8 µg/ml was added, and the cells were incubated overnight. Two days after the transfection, […] puromycin (invitrogen, A11138-03) was added to the cell culture medium for resistance screening. After about two weeks, the MCF7 cell line capable of stably expressing ERαY537S and ERα D538G mutants was obtained.
(§3) MCF7 cells expressing ERα mutant were cultured in MEM (GE Healthcare, SH30024.01) complete medium containing 10% fetal bovine serum. On the first day of the experiment, the cells were seeded in a 96-well plate with the complete medium at a density of 3,000 cells/well (100 μl of cell suspension per well), and the plate was incubated in a cell incubator at 37° C. and 5% CO2 overnight. On the second day, the medium in each well was replaced with 135 μl of MEM incomplete medium containing 2% fetal bovine serum. 15 μl of test compound solution of different concentrations formulated with the incomplete medium was added to each well, wherein the final concentrations of the compound were nine concentration points obtained by a 4-fold gradient dilution starting from 100 nM. A blank control containing 0.500 DMSO was set. The plate was incubated in a cell incubator at 37° C. and 500 CO2 for 144 hours. On the eighth day, the 96-well plate was taken out, and 150 of CellTiter-Glo® Luminescent Cell Viability Assay (Promega, G7573) was added to each well. The plate was left to stand at room temperature for 10 minutes, and the luminescence signal values were measured using a multi-label microplate reader (PerkinElmer, VICTOR 3). The IC50 values of the inhibitory activity of the compounds were calculated based on the concentrations and luminescence signal values of the compounds using Graphpad Prism software.

MCF7 cell = experiment: Inhibition of proliferation of MCF7 cell (CellTiter-Glo, 144 hours); settings: Homo sapiens; for IC50: MCF7, CellTiter-Glo, read-out: IC50 of the inhibitory effect on the proliferation of MCF7 cell; for Emax: MCF7 cell proliferation, read-out: Maximum inhibition
Experimental: as §3, with “cells (ATCC, HTB-22)” for “cells expressing ERα mutant”, “experiment, MCF7” for “experiment, the”, “containing 0.5%” for “containing 0.500”, “and 5%” for “and 500”, “150 μl” for “150”
A graph of the chemiluminescence signal values versus the logarithmic concentrations of the compound was made using Graghpad Prism to obtain the IC50 values of the compound.

MCF7 D538G = experiment: Inhibition of proliferation of MCF7 cell expressing ERα D538G mutant; settings: Homo sapiens, 144 hours; for Emax: read-out: Maximum inhibition
From the text: as §1, §2, §3

SMILES	IC50 [1]	IC50 (MCF7 ERαY537S)	Emax (MCF7 ERαY537S)	IC50 (MCF7 cell)	Emax (MCF7 cell)	IC50 (MCF7 D538G)	Emax (MCF7 D538G)
CN(C)C(=O)/C=C/CNC1(COc2ccc(/C(=C(/CC(F)(F)F)c3ccccc3)c3ccc4[nH]nc(F)c4c3)cn2)CCCC1 [Example 7, (E)-N,N-Dimethyl-4-((1-(((5-((Z)-4,4,4-trifluoro-1-(3-fluoro-1H-indazol-5-yl)-2-phenylbut-1-en-1-yl)pyridin-2-yl)oxy)methyl)cyclopentyl)amino)but-2-enamide]	38 nM	12 nM	88%	2 nM	102%	12 nM	84%
CN(C)C(=O)/C=C/CN1CCC(Oc2ccc(/C(=C(/CC(F)(F)F)c3ccccc3)c3ccc4[nH]nc(F)c4c3)cn2)CC1 [Example 9, (E)-N,N-Dimethyl-4-(4-((5-((Z)-4,4,4-trifluoro-1-(3-fluoro-1H-indazol-5-yl)-2-phenylbut-1-en-1-yl)pyridin-2-yl)oxy)piperidin-1-yl)but-2-enamide]	2 nM	2 nM	94%	0.1 nM	110%	0.8 nM	108%
O=C(/C=C/CNC1(COc2ccc(/C(=C(/CC(F)(F)F)c3ccccc3)c3ccc4[nH]nc(F)c4c3)cn2)CC1)N1CCNCC1 [Example 4, (E)-1-(Piperazin-1-yl)-4-((1-(((5-((Z)-4,4,4-trifluoro-1-(3-fluoro-1H-indazol-5-yl)-2-phenylbut-1-en-1-yl)pyridin-2-yl)oxy)methyl)cyclopropyl)amino)but-2-en-1-one]	4 nM	11 nM	101%	1.5 nM	113%	10 nM	105%
O=C(/C=C/CN1CCC[C@@H](Oc2ccc(/C(=C(/CC(F)(F)F)c3ccccc3)c3ccc4[nH]nc(F)c4c3)cn2)C1)NC1CCOCC1 [Example 13, (E)-N-(Tetrahydro-2H-pyran-4-yl)-4-((R)-3-((5-((Z)-4,4,4-trifluoro-1-(3-fluoro-1H-indazol-5-yl)-2-phenylbut-1-en-1-yl)pyridin-2-yl)oxy)piperidin-1-yl)but-2-enamide]	3 nM	5 nM	104%	0.6 nM	88%	3 nM	107%
C=CC(=O)N1CCC(Oc2ccc(/C(=C(/CC(F)(F)F)c3ccccc3)c3ccc4[nH]nc(F)c4c3)cn2)CC1 [Example 28, (Z)-1-(4-((5-(4,4,4-Trifluoro-1-(3-fluoro-1H-indazol-5-yl)-2-phenylbut-1-en-1-yl)pyridin-2-yl)oxy)piperidin-1-yl)prop-2-en-1-one]	4 nM	–	–	0.1 nM	90%	–	–
C=CC(=O)N1CCC[C@@H](Oc2ccc(/C(=C(/CC(F)(F)F)c3ccccc3)c3ccc4[nH]nc(F)c4c3)cn2)C1 [Example 26, (R,Z)-1-(3-((5-(4,4,4-Trifluoro-1-(3-fluoro-1H-indazol-5-yl)-2-phenylbut-1-en-1-yl)pyridin-2-yl)oxy)piperidin-1-yl)prop-2-en-1-one]	3 nM	2 nM	104%	0.3 nM	103%	1 nM	111%
CN(C)C(=O)/C=C/CN[C@@H]1CCN(c2ccc(/C(=C(/CC(F)(F)F)c3ccccc3)c3ccc4[nH]nc(F)c4c3)cn2)C1 [Example 34, (E)-N,N-Dimethyl-4-(((R)-1-(5-((Z)-4,4,4-trifluoro-1-(3-fluoro-1H-indazol-5-yl)-2-phenylbut-1-en-1-yl)pyridin-2-yl)pyrrolidin-3-yl)amino)but-2-enamide]	3 nM	1 nM	105%	0.2 nM	103%	1 nM	101%
CN(C)C(=O)/C=C/CN1CCC[C@H](Oc2ccc(/C(=C(/CC(F)(F)F)c3ccccc3)c3ccc4[nH]nc(F)c4c3)cn2)C1 [Example 27, (E)-N,N-Dimethyl-4-((S)-3-((5-((Z)-4,4,4-trifluoro-1-(3-fluoro-1H-indazol-5-yl)-2-phenylbut-1-en-1-yl)pyridin-2-yl)oxy)piperidin-1-yl)but-2-enamide]	7 nM	–	–	0.3 nM	86%	–	–
CNC(=O)c1ccc(/C(CC(F)(F)F)=C(\c2ccc(O[C@@H]3CCCN(C/C=C/C(=O)N(C)C)C3)nc2)c2ccc3[nH]nc(F)c3c2)cc1 [Example 21, 4-((Z)-1-(6-(((R)-1-((E)-4-(Dimethylamino)-4-oxobut-2-en-1-yl)piperidin-3-yl)oxy)pyridin-3-yl)-4,4,4-trifluoro-1-(3-fluoro-1H-indazol-5-yl)but-1-en-2-yl)-N-methylbenzamide]	–	–	–	45 nM	90%	–	–
CN(C)C(=O)/C=C/CN1CC[C@H](Oc2ccc(/C(=C(/CC(F)(F)F)c3ccccc3)c3ccc4[nH]nc(F)c4c3)cn2)C1 [Example 30, (E)-N,N-Dimethyl-4-((S)-3-((5-((Z)-4,4,4-trifluoro-1-(3-fluoro-1H-indazol-5-yl)-2-phenylbut-1-en-1-yl)pyridin-2-yl)oxy)pyrrolidin-1-yl)but-2-enamide]	3 nM	–	–	0.2 nM	93%	–	–
